# Test results published in publication PMC7312356 (International Journal of Molecular Sciences, 2020).
# Target: T1, SgGAPDH (Streptococcus gordonii, UniProt Q68AZ3)
# T1 construct: gene GAPDH
# Experiment: biochemical
# T1 sequence (Q68AZ3 entry or part of it): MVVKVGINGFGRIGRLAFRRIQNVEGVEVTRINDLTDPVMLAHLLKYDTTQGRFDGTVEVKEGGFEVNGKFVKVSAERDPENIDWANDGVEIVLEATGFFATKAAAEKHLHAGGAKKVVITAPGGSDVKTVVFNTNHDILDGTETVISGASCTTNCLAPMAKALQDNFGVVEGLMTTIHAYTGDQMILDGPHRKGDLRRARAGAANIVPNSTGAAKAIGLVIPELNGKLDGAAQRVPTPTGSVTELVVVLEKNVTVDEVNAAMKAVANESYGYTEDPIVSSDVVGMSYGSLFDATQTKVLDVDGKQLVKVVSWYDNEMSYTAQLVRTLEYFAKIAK
structure (smiles),measurement,value
C=CC1=C(C)C2=Cc3c(C=C)c(C)c4[n]3[Fe]([Cl])[n]3c(c(C)c(CCC(=O)O)c3=CC3=NC(=C4)C(C)=C3CCC(=O)O)=CC1=N2 [Fe(III)heme],Kd,1.7 µM
